The term EC50 denotes the midpoint of the concentration-response curve. A low value points to greater potency.

The text below walks through data of BindingDB's records for doi:10.1016/j.bmcl.2005.11.096 (Glaxosmithkline, 2006).

This assay can be described thus: Agonist activity as induced proliferation in Ba/F3-hTpoR murine lymphocyte expressing human TPOR.
Compound `CC(C)(C)c1ccc(-c2cccc(-c3nc4ccc(C=C5SC(S)=NC5=O)cc4[nH]3)n2)cc1` [5-((2-(6-(4-tert-butylphenyl)pyridin-2-yl)-1H-benzo[d]imidazol-5-yl)methylene)-2-thioxothiazolidin-4-one] gave an EC50 of 2 µM. To `CC(C)(C)c1ccc(-c2cccc(-c3nc4ccc(CC(C(=O)O)C(=O)O)cc4[nH]3)n2)cc1` [2-((2-(6-(4-tert-butylphenyl)pyridin-2-yl)-1H-benzo[d]imidazol-5-yl)methyl)malonic acid] belongs 10 µM; to `CC(=Cc1ccc2nc(-c3cccc(-c4ccc(C(C)(C)C)cc4)n3)[nH]c2c1)C(=O)O` [3-(2-(6-(4-tert-butylphenyl)pyridin-2-yl)-1H-benzo[d]imidazol-5-yl)-2-methylacrylic acid], 4.5 µM. Take `Cc1ccc(-c2cccc(-c3nc4ccc(C=C5SC(S)=NC5=O)cc4[nH]3)n2)cc1C` [5-((2-(6-(3,4-dimethylphenyl)pyridin-2-yl)-1H-benzo[d]imidazol-5-yl)methylene)-2-thioxothiazolidin-4-one]: a half-maximal response (EC50) required 1.6 µM.

As to `CC(C)(C)c1ccc(-c2ccc(-c3nc4ccc(C=C5SC(=S)NC5=O)cc4[nH]3)o2)cc1` [5-((2-(5-(4-tert-butylphenyl)furan-2-yl)-1H-benzo[d]imidazol-5-yl)methylene)-2-thioxothiazolidin-4-one], the EC50 turned out to be 0.72 µM. `Cc1ccc(-c2ccc(-c3nc4ccc(C=C5SC(S)=NC5=O)cc4[nH]3)s2)cc1C` [5-((2-(5-(3,4-dimethylphenyl)thiophen-2-yl)-1H-benzo[d]imidazol-5-yl)methylene)-2-thioxothiazolidin-4-one] had an EC50 of 1.75 µM. `CC(C)(C)c1ccc(-c2cccc(-c3nc4ccc(C=C5SC(=S)NC5=O)cc4[nH]3)c2)cc1` [5-[1-[2-(4'-tert-Butyl-biphenyl-3-yl)-1H-benzoimidazol-5-yl]-methylidene]-2-thioxo-thiazolidin-4-one] displayed an EC50 of 0.9 µM.

`Cc1ccc(-c2csc(-c3nc4ccc(C=C5SC(S)=NC5=O)cc4[nH]3)c2)cc1C` [5-((2-(4-(3,4-dimethylphenyl)thiophen-2-yl)-1H-benzo[d]imidazol-5-yl)methylene)-2-thioxothiazolidin-4-one] showed an EC50 of 0.78 µM.
